Here are results for seven molecules from ChEMBL document CHEMBL1201862, “PubChem BioAssay data set” (2004).

Among the test systems are HCC 2998; MOLT-4; K562; HOP-92; NCI-H226; CCRF-CEM; SW-620; M14; OVCAR-3; SK-OV-3; SK-MEL-28; MDA-MB-231; T47D; SF-539; OVCAR-8; OVCAR-5; DU-145; HCT-15; NCI-H23; RPMI-8226.
Common to all, as to assay: growth of human tumour cells (NCI), 48 h

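Test compounds were applied to cells in 96-well plates for 48 hours at 5 doses. GI50: concentration for 50% inhibition of growth.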 Active and inactive are the calls of the source. Rule as the data show it: active = GI50 up to about 1.1 µM and inactive = higher. A value given as a limit tells only on which side of the number the result lay.

Consider `O=C(C=P(c1ccccc1)(c1ccccc1)c1ccccc1)c1ccccc1-c1ccccc1C(=O)C=P(c1ccccc1)(c1ccccc1)c1ccccc1`, for which the GI50 with HCC 2998 is 0.0319 µM (active); with MOLT-4 it was 0.0124 µM (active); with K562, < 0.01 µM (active); with HOP-92, 0.0127 µM (active); in the assay with NCI-H226, 0.0221 µM (active); with CCRF-CEM it was < 0.0128 µM (active). The GI50 with SW-620 was 0.027 µM (active); with M14 it was 0.0352 µM (active); in the assay with OVCAR-3, < 0.01 µM (active); with SK-OV-3 it was 0.0216 µM (active); in the assay on SK-MEL-28 it was 0.178 µM (active); in the assay on MDA-MB-231 it was 0.0215 µM (active). The GI50 is < 0.01 µM (active) in the assay on T47D; 0.0328 µM (active) with SF-539; < 0.01 µM (active) with OVCAR-8; 0.0462 µM (active) with OVCAR-5; 0.0184 µM (active) in the assay on DU-145; 0.28 µM in the assay on HCT-15. Also, the figures for the GI50 in the assay on NCI-H23 and in the assay on RPMI-8226 were 0.018 µM (active) and < 0.01 µM (active), respectively.

With `O=S(=O)(/C=C/C=C/[S+]([O-])c1ccccc1)c1ccccc1` (stereo unspecified), the GI50 in the assay with HCC 2998 was > 10 µM (inactive); with MOLT-4, 1.42 µM (inactive); in the assay with K562, 0.902 µM (active); with HOP-92 it was 1.96 µM (inactive); with NCI-H226 it was > 10 µM (inactive); with CCRF-CEM, 0.333 µM (active). The GI50 with SW-620 was 1.3 µM (inactive); with M14, 0.685 µM (active); in the assay with OVCAR-3, 1.53 µM (inactive); in the assay on SK-OV-3, > 10 µM (inactive); in the assay on SK-MEL-28 it was 1.98 µM (inactive); with MDA-MB-231, 2.81 µM (inactive). In addition, the GI50 was 2.02 µM (inactive) in the assay with T47D; 8.09 µM (inactive) with SF-539; 1.7 µM (inactive) in the assay with OVCAR-8; > 8.22 µM (inactive) in the assay with OVCAR-5; > 4.42 µM (inactive) with DU-145; 2.05 µM in the assay on HCT-15. Besides, the GI50 in the assay with NCI-H23 is 1.96 µM (inactive); with RPMI-8226 it was 0.875 µM (active).

`COc1cc2c(c(OC)c1OC)C(=O)[C@H]1OC(=O)N[C@@H]21`: the GI50 in the assay with HCC 2998, in the assay with MOLT-4, with K562, in the assay on HOP-92, with NCI-H226 and with CCRF-CEM was > 100 µM (inactive) in each case. For the same molecule, the GI50 with SW-620, in the assay with M14, in the assay on OVCAR-3, with SK-OV-3, with SK-MEL-28 and in the assay on MDA-MB-231 was > 100 µM (inactive) throughout. For the same molecule, the GI50 was > 100 µM (inactive) in the assay with T47D; > 100 µM (inactive) with SF-539; > 100 µM (inactive) in the assay on OVCAR-8; > 100 µM (inactive) in the assay on OVCAR-5; > 100 µM (inactive) with DU-145; over 100 µM with HCT-15. Also, the GI50 in the assay with NCI-H23 and with RPMI-8226 was > 100 µM (inactive) in each case.

With `C=C(C)CCC1C=[N+]([O-])OC(C)(C)C1(C)C` (stereo unspecified), the GI50 in the assay with HCC 2998 was > 100 µM (inactive); with MOLT-4 it was > 100 µM (inactive); with K562 it was > 100 µM (inactive); in the assay on HOP-92, > 100 µM (inactive); in the assay on NCI-H226, > 100 µM (inactive); in the assay on CCRF-CEM it was 33.3 µM (inactive). Moreover, the GI50 was 39 µM (inactive) in the assay on SW-620; > 100 µM (inactive) in the assay on M14; > 100 µM (inactive) in the assay on OVCAR-3; > 100 µM (inactive) in the assay on SK-OV-3; > 100 µM (inactive) in the assay with MDA-MB-231; > 100 µM (inactive) in the assay with T47D. The GI50 in the assay with SF-539 was > 100 µM (inactive); with OVCAR-8, > 100 µM (inactive); with OVCAR-5, > 100 µM (inactive); in the assay with DU-145, > 100 µM (inactive); in the assay with HCT-15 it was 84.3 µM; with RPMI-8226 it was > 100 µM (inactive).

For the molecule `CCOC(=O)c1cc(-n2nnc3ccccc32)cn1C`, the GI50 in the assay with HCC 2998, in the assay with MOLT-4, in the assay with K562, in the assay with HOP-92, in the assay with NCI-H226 and in the assay with CCRF-CEM was > 10 µM (inactive) throughout. Moreover, the GI50 in the assay with M14, with OVCAR-3, in the assay on SK-OV-3, in the assay on SK-MEL-28, in the assay on MDA-MB-231 and in the assay on T47D was > 10 µM (inactive) in each case. Also, the GI50 in the assay with SF-539 is > 10 µM (inactive); in the assay on OVCAR-8, > 10 µM (inactive); in the assay with OVCAR-5, > 10 µM (inactive); in the assay with DU-145, > 10 µM (inactive); in the assay on HCT-15 it was over 10 µM; in the assay with NCI-H23, > 10 µM (inactive). For the same molecule, the GI50 in the assay on RPMI-8226 is > 10 µM (inactive).

`CC(=O)OC1CC[C@@]2(C)C(CC[C@]3(C)C2CC=C2[C@@H]4C(C)[C@H](C)CCC4(C)CCC23C)[C@@]1(C)C(=O)O` (stereo partly specified): the GI50 with HCC 2998 was 19.1 µM (inactive); in the assay on MOLT-4 it was 26.8 µM (inactive); in the assay on K562, 25.9 µM (inactive); in the assay on HOP-92 it was 21.2 µM (inactive); with NCI-H226, 22.1 µM (inactive); in the assay on CCRF-CEM, 24.9 µM (inactive). The GI50 with SW-620 was 21.9 µM (inactive); in the assay on M14, 22.3 µM (inactive); in the assay on OVCAR-3, 18.9 µM (inactive); with SK-OV-3 it was 18.4 µM (inactive); with SK-MEL-28 it was 23.7 µM (inactive); in the assay on MDA-MB-231, 20.9 µM (inactive). The GI50 is 17.9 µM (inactive) with T47D; 21.4 µM (inactive) in the assay with SF-539; 23.6 µM (inactive) in the assay on OVCAR-8; 18 µM (inactive) with OVCAR-5; 17.9 µM (inactive) in the assay on DU-145; 17.6 µM with HCT-15. Also, the GI50 in the assay with NCI-H23 was 22.5 µM (inactive); in the assay with RPMI-8226, 21.9 µM (inactive).

As for `COc1cc2cc(C(=O)N3CC(CCl)c4c3cc([N+](=O)[O-])c3ccccc43)[nH]c2c(OC)c1OC` (stereo unspecified), the GI50 was 14.1 µM (inactive) in the assay on HCC 2998; 13.8 µM (inactive) in the assay on MOLT-4; 15.3 µM (inactive) in the assay with K562; > 70.1 µM (inactive) in the assay on HOP-92; > 100 µM (inactive) with NCI-H226; 11.6 µM (inactive) with CCRF-CEM. In addition, the GI50 in the assay on SW-620 was > 100 µM (inactive); with M14, 46.6 µM (inactive); in the assay on OVCAR-3, > 100 µM (inactive); in the assay with SK-OV-3, > 48.5 µM (inactive); in the assay with SK-MEL-28, > 100 µM (inactive); in the assay on MDA-MB-231, > 100 µM (inactive). Also, the GI50 in the assay with T47D is > 66.8 µM (inactive); in the assay on SF-539, 25.8 µM (inactive); in the assay with OVCAR-8, 12.8 µM (inactive); in the assay with OVCAR-5 it was 25.6 µM (inactive); with DU-145, 12.5 µM (inactive); in the assay with NCI-H23, 27.2 µM (inactive). Also, the GI50 with RPMI-8226 was > 100 µM (inactive).
